Experimental data: patent publication US10150737B2, “Compounds for controlling arthropods” (priority 2013, dated 2018)
Where two headings read alike, the source gives them in different places.

How the values were obtained:
[1] = logP determination by HPLC on a reversed-phase column (C18); assay type: physicochemical; conditions: for logP^a): HPLC-MS method a); for log P: HPLC-MS
[2] = tested on: Boophilus microplus; experiment: Boophilus microplus - injection test; assay type: in vivo; conditions: application rate 20 μg/animal, injection into engorged adult female ticks, after 7 days; for pest or weed control at 0.02 mg: Rhipicephalus microplus, 168 h, read-out: efficacy (laying of fertile eggs)
Description: (§1) Solvent: dimethyl sulphoxide
To produce an appropriate active ingredient formulation, 10 mg of active ingredient are mixed with 0.5 ml of solvent and the concentrate is diluted with solvent to the desired concentration.
1 μl of the active ingredient solution is injected into the abdomen of 5 engorged adult female cattle ticks (Boophilus microplus). The animals are transferred into dishes and kept in a climate-controlled room.
Efficacy is assessed after 7 days by laying of fertile eggs. Eggs which are not visibly fertile are stored in a climate-controlled cabinet until the larvae hatch after about 42 days. An efficacy of 100% means that none of the ticks has laid any fertile eggs; 0% means that all the eggs are fertile.

[3] = tested on: Ctenocephalides felis; experiment: Ctenocephalides felis - oral test; assay type: in vivo; conditions: application rate 100 ppm in citrated cattle blood; after 2 days
Description: as §1
For the purpose of producing an appropriate active ingredient formulation, 10 mg of active ingredient are mixed with 0.5 ml of dimethyl sulphoxide. Dilution with citrated cattle blood gives the desired concentration.
About 20 unfed adult cat fleas (Ctenocephalides felis) are placed into a chamber which is closed at the top and bottom with gauze. A metal cylinder whose bottom end is closed with parafilm is placed onto the chamber. The cylinder contains the blood/active ingredient preparation, which can be imbibed by the fleas through the parafilm membrane.
After 2 days, the kill in % is determined. 100% means that all of the fleas have been killed; 0% means that none of the fleas have been killed.

[4] = tested on: Phaedon cochleariae; experiment: Phaedon cochleariae - spray test; assay type: in vivo; conditions: larvae on Chinese cabbage leaf discs, after 7 days
Description: Solvent: 78.0 parts by weight of acetone and 1.5 parts by weight of dimethylformamide
Emulsifier: alkylaryl polyglycol ether
To produce an appropriate active ingredient formulation, 1 part by weight of active ingredient is dissolved using the specified parts by weight of solvent and made up with water containing an emulsifier concentration of 1000 ppm until the desired concentration is attained. To produce further test concentrations, the preparation is diluted with emulsifier-containing water.
Discs of Chinese cabbage leaves (Brassica pekinensis) are sprayed with an active ingredient formulation of the desired concentration and, after drying, populated with larvae of the mustard beetle (Phaedon cochleariae).
After 7 days, efficacy in % is determined. 100% means that all the beetle larvae have been killed; 0% means that no beetle larvae have been killed.

[5] = reversed-phase column (C18), Table I-T3
[6] = HPLC, C18 reversed phase, acetonitrile/water with formic acid, EEC Directive 79/831 Annex V.A8

Structure (SMILES) | log P [1, 5] | other results
Nc1c(Cl)cc(C(O)(C(F)(F)F)C(F)(F)F)cc1Cl [2-(4-amino-3,5-dichlorphenyl)-1,1,1,3,3,3-hexafluoropropan-2-ol] |  | logP [1]: 3.04
Cc1cc(C(F)(C(F)(F)F)C(F)(F)F)cc(C)c1-c1ccn(-c2ccc(Cl)c(C(=O)NC3CC3)c2)n1 [I-T2-1, 2-chloro-N-cyclopropyl-5-[3-[2,6-dimethyl-4-[1,2,2,2-tetrafluoro-1-(trifluoromethyl)ethyl]phenyl]pyrazol-1-yl]benzamide] |  | pest or weed control at 0.02 mg [2]: 100%
Cc1cc(C(F)(C(F)(F)F)C(F)(F)F)cc(C)c1-n1cc(-c2cc(C(=O)NC3CC3)c(Cl)cc2F)cn1 [I-T3-14] |  | logP^a) [1]: 4.5; logP^a) [1, 5]: 4.5
Cc1ccc(C(=O)NC2CC2)cc1-c1cnn(-c2c(C)cc(C(F)(C(F)(F)F)C(F)(F)F)cc2C)c1 [I-T3-16] |  | logP^a) [1]: 4.4; logP^a) [1, 5]: 4.4; efficacy (kill) [3]: 80%
COc1cc(C(F)(F)F)cc(F)c1-n1cc(-c2ccc(Cl)c(C(=O)NC3CC3)c2)cn1 [I-T3-50, 2-chloro-N-cyclopropyl-5-[1-[2-fluoro-6-methoxy-4-(trifluoromethyl)phenyl]pyrazol-4-yl]benzamide] |  | pest or weed control at 0.02 mg [2]: 100%
CN(C(=O)c1cc(-c2cnn(-c3ccc(C(F)(C(F)(F)F)C(F)(F)F)cc3C(F)(F)F)c2)ccc1Cl)C1CC1 [I-T3-134] | 4.9 | logP [1, 6]: 4.88; logP^a) ([1]; reversed-phase column (C18)): 4.9
O=C(NC1CC1)c1cc(-c2cnn(-c3c(Cl)cc(C(F)(C(F)(F)F)C(F)(F)F)cc3Cl)c2)cnc1N1CCCC1 [I-T3-135] | 4.3 | logP^a) ([1]; reversed-phase column (C18)): 4.3; efficacy (kill) [3]: 100%
Cc1cc(C(F)(C(F)(F)F)C(F)(F)F)cc(C)c1-n1cc(-c2cnc(C3CC3)c(C(=O)N(C)C3CC3)c2)cn1 [I-T3-142] | 4.6 | efficacy (laying of fertile eggs) [2]: 100%; logP^a) ([1]; reversed-phase column (C18)): 4.6
CC[S+]([O-])c1cc(C(F)(C(F)(F)F)C(F)(F)F)cnc1-n1cc(-c2ccc(Cl)c(C(=O)NC3(C#N)CC3)c2)cn1 (stereo not shown) [I-T3-153] | 3.7 | logP^a) ([1]; reversed-phase column (C18)): 3.7; efficacy ([4]; application rate 100 g/ha): 100%
CCSc1cc(C(F)(C(F)(F)F)C(F)(F)F)cnc1-n1cc(-c2ccc(Cl)c(C(=O)NC3CC3)c2)cn1 [I-T3-156, 2-Chloro-N-cyclopropyl-5-{1-[3-(ethylsulphanyl)-5-(1,1,1,2,3,3,3-heptafluoropropan-2-yl)pyridin-2-yl]-1H-pyrazol-4-yl}benzamide] | 4.7 | logP^a) ([1]; reversed-phase column (C18)): 4.7
CC[S+]([O-])c1cc(C(F)(C(F)(F)F)C(F)(F)F)cnc1-n1cc(-c2ccc(Cl)c(C(=O)NC3CC3)c2)cn1 (stereo not shown) [I-T3-157, 2-Chloro-N-cyclopropyl-5-{1-[3-(ethylsulphinyl)-5-(1,1,1,2,3,3,3-heptafluoropropan-2-yl)pyridin-2-yl]-1H-pyrazol-4-yl}benzamide] | 3.8 | logP^a) ([1]; reversed-phase column (C18)): 3.8
NC(=S)C1(NC(=O)c2cc(-c3cnn(-c4c(Cl)cc(C(F)(C(F)(F)F)C(F)(F)F)cc4C(F)(F)F)c3)cnc2Cl)CC1 [I-T3-159] | 3.8 | logP^a) ([1]; reversed-phase column (C18)): 3.8
CSc1cc(C(F)(C(F)(F)F)C(F)(F)F)cnc1-n1cc(-c2ccc(Cl)c(C(=O)NC3(C#N)CC3)c2)cn1 [I-T3-166] | 4.3 | 
N#CC1(NC(=O)c2cc(-c3cnn(-c4ncc(C(F)(C(F)(F)F)C(F)(F)F)cc4SCC(F)(F)F)c3)ccc2Cl)CC1 [I-T3-171] | 4.5 | efficacy ([4]; application rate 100 g/ha): 100%
N#CC1(NC(=O)c2cc(-c3cnn(-c4c(F)c(F)c(C(F)(F)F)c(F)c4F)c3)ccc2Cl)CC1 [I-T3-188] | 3.4 | efficacy ([4]; application rate 500 g/ha): 100%
O=C(NC1CC1)c1cc(-c2cnn(-c3c(Cl)cc(C(F)(C(F)(F)F)C(F)(F)F)cc3C(F)F)c2)ccc1Cl [I-T3-193] | 4.4 | 
NC(=O)C1(NC(=O)c2cc(-c3cnn(-c4c(F)c(F)c(C(F)(F)F)c(F)c4F)c3)ccc2Cl)CC1 [I-T3-194] | 2.8 | 
CCS(=O)(=O)c1cc(C(F)(C(F)(F)F)C(F)(F)F)cc(Cl)c1-n1cc(-c2ccc(Cl)c(C(=O)NC3(C#N)CC3)c2)cn1 [I-T3-201] | 4.0 | 
CCSc1cc(C(F)(C(F)(F)F)C(F)(F)F)cc(C)c1-n1cc(-c2ccc(Cl)c(C(=O)NC3(C#N)CC3)c2)cn1 [I-T3-202] | 4.5 | 
CCSc1cc(C(F)(C(F)(F)F)C(F)(F)F)cc(C)c1-n1cc(-c2ccc(Cl)c(C(=O)NC3CC3)c2)cn1 [I-T3-203] | 4.6 | 
CN(C(=O)c1cc(-c2cnn(-c3c(Cl)cc(C(F)(C(F)(F)F)C(F)(F)F)cc3C#N)c2)cnc1Cl)C1CC1 [I-T3-204] | 3.9 | 
N#Cc1cc(C(F)(C(F)(F)F)C(F)(F)F)cc(Cl)c1-n1cc(-c2cnc(Cl)c(C(=O)NC3CC3)c2)cn1 [I-T3-205] | 3.5 | 

Structure (SMILES) | log P [1, 5] | other results
CC[S+]([O-])c1cc(C(F)(C(F)(F)F)C(F)(F)F)cc(C)c1-n1cc(-c2ccc(Cl)c(C(=O)NC3(C#N)CC3)c2)cn1 (stereo not shown) [I-T3-206] | 3.6 | 
N#Cc1cc(C(F)(C(F)(F)F)C(F)(F)F)cc(Cl)c1-n1cc(-c2cnc(Cl)c(C(=O)NC3(C#N)CC3)c2)cn1 [I-T3-207] | 3.5 | 
CN(C(=O)c1cc(-c2cnn(-c3c(Cl)cc(C(F)(C(F)(F)F)C(F)(F)F)cc3OC(F)(F)F)c2)cnc1Cl)C1CC1 [I-T3-208] | 4.6 | 
CCS(=O)(=O)c1cc(C(F)(C(F)(F)F)C(F)(F)F)cc(C)c1-n1cc(-c2ccc(Cl)c(C(=O)NC3(C#N)CC3)c2)cn1 [I-T3-209] | 3.8 | 
CCS(=O)(=O)c1cc(C(F)(C(F)(F)F)C(F)(F)F)cc(C)c1-n1cc(-c2ccc(Cl)c(C(=O)NC3CC3)c2)cn1 [I-T3-210] | 3.9 | 
CCOc1cc(C(F)(C(F)(F)F)C(F)(F)F)cc(OCC)c1-n1cc(-c2cnc(Cl)c(C(=O)N(C)C3CC3)c2)cn1 [I-T3-211] | 4.7 | 
N#CC1(NC(=O)c2cc(-c3cnn(-c4c(Cl)cc(C(F)(C(F)(F)F)C(F)(F)F)cc4I)c3)ccc2Cl)CC1 [I-T3-212] | 4.3 | 
O=C(NC1CC1)c1cc(-c2cnn(-c3c(Cl)cc(C(F)(C(F)(F)F)C(F)(F)F)cc3I)c2)ccc1Cl [I-T3-213] | 4.4 | 
O=C(NC1CC1)c1cc(-c2cnn(-c3c(Cl)cc(C(F)(C(F)(F)F)C(F)(F)F)cc3OC(F)F)c2)ccc1Cl [I-T3-214] | 4.3 | 
N#CC1(NC(=O)c2cc(-c3cnn(-c4c(Cl)cc(C(F)(C(F)(F)F)C(F)(F)F)cc4OC(F)F)c3)ccc2Cl)CC1 [I-T3-215] | 4.1 | 
CN(C(=O)c1cc(-c2cnn(-c3c(Cl)cc(C(F)(C(F)(F)F)C(F)(F)F)cc3OC(F)F)c2)ccc1Cl)C1CC1 [I-T3-216] | 4.7 | 
CN(C(=O)c1cc(-c2cnn(-c3c(Cl)cc(C(F)(C(F)(F)F)C(F)(F)F)cc3OC(F)F)c2)cnc1Cl)C1CC1 [I-T3-217] | 4.2 | 
N#CC1(NC(=O)c2cc(-c3cnn(-c4c(Cl)cc(C(F)(C(F)(F)F)C(F)(F)F)cc4OC(F)F)c3)cnc2Cl)CC1 [I-T3-218] | 3.7 | 
CN(C(=O)c1cc(-c2cnn(-c3c(Cl)cc(C(F)(C(F)(F)F)C(F)(F)F)cc3OC(F)(F)F)c2)ccc1Cl)C1CC1 [I-T3-219] | 5.1 | 
CN(C(=O)c1cc(-c2cnn(-c3c(Cl)cc(C(O)(C(F)(F)F)C(F)(F)F)cc3Cl)c2)cnc1Cl)C1CC1 [I-T3-220] | 3.4 | efficacy ([4]; application rate 100 g/ha): 100%
O=C(NC1CC1)c1cc(-c2cnn(-c3c(I)cc(C(F)(C(F)(F)F)C(F)(F)F)cc3OC(F)(F)F)c2)ccc1Cl [I-T3-224] | 4.7 | 
CN(C(=O)c1cc(-c2cnn(-c3c(I)cc(C(F)(C(F)(F)F)C(F)(F)F)cc3OC(F)(F)F)c2)ccc1Cl)C1CC1 [I-T3-225] | 5.2 | 
N#CC1(NC(=O)c2cc(-c3cnn(-c4c(I)cc(C(F)(C(F)(F)F)C(F)(F)F)cc4OC(F)(F)F)c3)ccc2Cl)CC1 [I-T3-226] | 4.6 | 
O=C(NC1CC1)c1cc(-c2cnn(-c3c(I)cc(C(F)(C(F)(F)F)C(F)(F)F)cc3C(F)(F)F)c2)ccc1Cl [I-T3-227] | 4.5 | 
N#CC1(NC(=O)c2cc(-c3cnn(-c4c(I)cc(C(F)(C(F)(F)F)C(F)(F)F)cc4C(F)(F)F)c3)ccc2Cl)CC1 [I-T3-228] | 4.4 | 
CN(C(=O)c1cc(-c2cnn(-c3c(I)cc(C(F)(C(F)(F)F)C(F)(F)F)cc3C(F)(F)F)c2)ccc1Cl)C1CC1 [I-T3-229] | 5.1 | 
Cc1cc(C(F)(C(F)(F)F)C(F)(F)F)cc(C)c1-n1ccc(-c2ccc(Cl)c(C(=O)NC3(C#N)CC3)c2)c1 [I-T46-1] |  | logP [1, 6]: 4.90
